From PMC11200585, “Prospects for Prostate Cancer Chemotherapy: Cytotoxic Evaluation and Mechanistic Insights of Quinolinequinones with ADME/PK Profile” (Biomedicines, 2024)

Legend:
Type in all cases: cell-based, human
[1] = system: TK-10; assay: NCI-60 five-dose assay (renal cancer); settings: 48 h, SRB; for GI50 / LC50 (concentration killing 50% of starting cells): Homo sapiens
[2] = system: NCI/ADR-RES; assay: NCI-60 five-dose assay (ovarian cancer); settings: 48 h, SRB; for GI50 / CC50: Homo sapiens; for CC50: read-out: LC50 (the source's name)
[3] = system: SF-539; assay: NCI-60 five-dose assay (CNS cancer); settings: 48 h, SRB; for GI50 / LC50: Homo sapiens
[4] = system: UACC-62; assay: NCI-60 five-dose assay (melanoma); settings: 48 h, SRB; for GI50 / LC50 (concentration killing 50% of cells): Homo sapiens
[5] = system: TK-10; assay: NCI-60 one-dose screen (renal cancer); settings: 10 µM single dose, 48 h
Method: (§1) The obtained quinolinequinones were submitted to NCI, Bethesda, USA, and, as per standard protocol of NCI, all compounds were evaluated for their antiproliferative activity at single-dose assay (10 µM concentration in DMSO) on a panel of 60 cancer cell lines derived from leukemia, non-small-cell lung, colon, CNS, melanoma, ovarian, renal, prostate, and breast, as per protocol. Tested compounds were added to the microtiter culture plates followed by incubation for 48 h at 37 °C. Sulforhodamine B (SRB), a protein-binding dye, is used for endpoint determination. The percent of the growth of the treated cells was determined in comparison to the untreated control cells and the results of each tested compound were reported. Data from one-dose experiments pertain to the percentage growth at 10 μM [16, 17, 18].

[6] = system: 786-0; assay: NCI-60 one-dose screen (renal cancer); settings: 10 µM single dose; for GP (growth percentage): 48 h
Method: as §1

[7] = system: SN12C; assay: NCI-60 one-dose screen (renal cancer); settings: 10 µM single dose, 48 h
Method: as §1

[8] = system: A498; assay: NCI-60 one-dose screen (renal cancer); settings: 10 µM single dose, 48 h
Method: as §1

[9] = system: ACHN; assay: NCI-60 one-dose screen (renal cancer); settings: 10 µM single dose, 48 h
Method: as §1

[10] = system: UO-31; assay: NCI-60 one-dose screen (renal cancer); settings: 10 µM single dose, 48 h
Method: as §1

[11] = system: DU-145; assay: NCI-60 one-dose screen (prostate cancer); settings: 10 µM single dose, 48 h
Method: as §1

[12] = system: PC-3; assay: NCI-60 one-dose screen (prostate cancer); settings: 10 µM single dose; for GP (growth percentage): 48 h; for inhibition at 10 µM: Homo sapiens
Method: as §1

[13] = system: MDA-MB-468; assay: NCI-60 five-dose assay (breast cancer); settings: 48 h, SRB; for GI50 / LC50: Homo sapiens
[14] = system: BT-549; assay: NCI-60 one-dose screen (breast cancer); settings: 10 µM single dose, 48 h
[15] = system: MDA-MB-231/ATCC; assay: NCI-60 one-dose screen (breast cancer); settings: 10 µM single dose, 48 h
[16] = system: MCF7; assay: NCI-60 one-dose screen (breast cancer); settings: 10 µM single dose, 48 h
[17] = system: IGROV1; assay: NCI-60 five-dose assay (ovarian cancer); settings: SRB; for TGI: 48 h; for GI50 / LC50: Homo sapiens, IGROV-1, 48 h
[18] = system: NCI-H226; assay: NCI-60 five-dose assay (non-small cell lung cancer); settings: 48 h, SRB; for GI50 / LC50: Homo sapiens
[19] = system: HOP-92; assay: as above; settings: 48 h, SRB; for GI50 / LC50 (50% lethal concentration): Homo sapiens
[20] = system: MALME-3M; assay: NCI-60 five-dose assay (melanoma); settings: 48 h, SRB; for GI50 / LC50: Homo sapiens
[21] = system: MDA-MB-435; assay: NCI-60 five-dose assay (melanoma); settings: 48 h, SRB; for GI50 / CC50: Homo sapiens; for CC50: read-out: LC50 (the source's name)
[22] = system: UO-31; assay: NCI-60 five-dose assay (renal cancer); settings: 48 h, SRB; for GI50 / LC50 (lethal concentration 50%): Homo sapiens
[23] = system: RPMI-8226; assay: NCI-60 five-dose assay (leukemia); settings: 48 h, SRB; for GI50 / CC50: Homo sapiens; for CC50: read-out: LC50 (the source's name)
[24] = system: SF-268; assay: NCI-60 five-dose assay (CNS cancer); settings: 48 h, SRB; for GI50 / LC50 (concentration killing 50% of cells): Homo sapiens
[25] = system: U251; assay: NCI-60 five-dose assay (CNS cancer); settings: SRB; for TGI: 48 h; for GI50 / LC50 (concentration killing 50% of cells): Homo sapiens, U-251, 48 h
[26] = system: NCI-H460; assay: NCI-60 five-dose assay (non-small cell lung cancer); settings: 48 h, SRB; for GI50 / CC50: Homo sapiens; for CC50: read-out: LC50 (the source's name)
[27] = system: A549/ATCC; assay: as above; settings: 48 h, SRB; for GI50 / CC50: Homo sapiens; for CC50: read-out: LC50 (the source's name)
[28] = system: UACC-257; assay: NCI-60 five-dose assay (melanoma); settings: 48 h, SRB; for GI50 / LC50 (NCI-60 lethal concentration, 50% cell kill): Homo sapiens
[29] = system: SK-MEL-2; assay: NCI-60 five-dose assay (melanoma); settings: 48 h, SRB; for GI50 / CC50: Homo sapiens; for CC50: read-out: LC50 (the source's name)
[30] = system: NCI-H522; assay: NCI-60 five-dose assay (non-small cell lung cancer); settings: 48 h, SRB; for GI50 / LC50: Homo sapiens
[31] = system: SK-MEL-28; assay: NCI-60 one-dose screen (melanoma); settings: 10 µM single dose; for GP (growth percentage): 48 h
Method: as §1

[32] = system: UACC-257; assay: NCI-60 one-dose screen (melanoma); settings: 10 µM single dose, 48 h
Method: as §1

[33] = system: UACC-62; assay: NCI-60 one-dose screen (melanoma); settings: 10 µM single dose, 48 h
Method: as §1

[34] = system: SK-MEL-2; assay: NCI-60 one-dose screen (melanoma); settings: 10 µM single dose; for GP (growth percentage): 48 h
Method: as §1

[35] = system: SK-MEL-5; assay: NCI-60 one-dose screen (melanoma); settings: 10 µM single dose, 48 h
Method: as §1

[36] = system: LOX IMVI; assay: NCI-60 one-dose screen (melanoma); settings: 10 µM single dose, 48 h
Method: as §1

[37] = system: MDA-MB-435; assay: NCI-60 one-dose screen (melanoma); settings: 10 µM single dose, 48 h
Method: as §1

Structure (SMILES): CCOc1ccc(NC2=C(Cl)C(=O)c3nc(C)ccc3C2=O)cc1 [AQQ3]
- TGI [1]: 3.77 µM
- GI50 [1]: 2.3 µM
- LC50 (concentration killing 50% of starting cells) [1]: 6.18 µM
- TGI [2]: 4.11 µM
- GI50 [2]: 1.7 µM
- CC50 [2]: 9.93 µM
- TGI [3]: 3.13 µM
- GI50 [3]: 1.68 µM
- LC50 [3]: 5.84 µM
- TGI [4]: 3.29 µM
- GI50 [4]: 1.81 µM
- LC50 (concentration killing 50% of cells) [4]: 5.97 µM
- GP (growth percentage) [5]: 121.08%
- GP (growth percentage) [6]: 8.39%
- inhibition at 10 µM ([6]; Homo sapiens): 91.6%
- GP (growth percentage) [7]: −57.33%
- GP (growth percentage) [8]: 100.96%
- GP (growth percentage) [9]: −98.42%
- GP (growth percentage) [10]: −65.05%
- GP (growth percentage) [11]: −92.73%
- GP (growth percentage) [12]: 10.40%
- inhibition at 10 µM [12]: 89.6%
- TGI [13]: 2.92 µM
- GI50 [13]: 1.49 µM
- LC50 [13]: 5.75 µM
- GP (growth percentage) [14]: 46.48%
- GP (growth percentage) [15]: −71.74%
- GP (growth percentage) [16]: −66.97%
- TGI [17]: 2.76 µM
- GI50 [17]: 1.36 µM
- LC50 [17]: 5.61 µM
- TGI [18]: 4.52 µM
- GI50 [18]: 1.84 µM
- LC50 [18]: > 100 µM
- TGI [19]: 3.51 µM
- GI50 [19]: 2.01 µM
- LC50 (50% lethal concentration) [19]: 6.12 µM
- TGI [20]: 3.16 µM
- GI50 [20]: 1.65 µM
- LC50 [20]: 6.02 µM
- TGI [21]: 1.53 µM
- GI50 [21]: 0.442 µM
- CC50 [21]: 3.99 µM
- TGI [22]: 2.75 µM
- GI50 [22]: 1.43 µM
- LC50 (lethal concentration 50%) [22]: 5.28 µM
- TGI [23]: 5.33 µM
- GI50 [23]: 1.67 µM
- CC50 [23]: > 100 µM
- TGI [24]: 3.09 µM
- GI50 [24]: 1.55 µM
- LC50 (concentration killing 50% of cells) [24]: 6.14 µM
- TGI [25]: 3.54 µM
- GI50 [25]: 1.8 µM
- LC50 (concentration killing 50% of cells) [25]: 6.94 µM
- TGI [26]: 10.4 µM
- GI50 [26]: 3.08 µM
- CC50 [26]: 49.7 µM
- TGI [27]: 4.64 µM
- GI50 [27]: 2.09 µM
- CC50 [27]: 17.5 µM
- TGI [28]: 2.78 µM
- GI50 [28]: 1.39 µM
- LC50 (NCI-60 lethal concentration, 50% cell kill) [28]: 5.58 µM
- TGI [29]: 3.03 µM
- GI50 [29]: 1.63 µM
- CC50 [29]: 5.64 µM
- TGI [30]: 3.22 µM
- GI50 [30]: 1.75 µM
- LC50 [30]: 5.94 µM
- GP (growth percentage) [31]: 8.93%
- inhibition at 10 µM ([31]; Homo sapiens): 91.1%
- GP (growth percentage) [32]: −89.19%
- GP (growth percentage) [33]: −43.31%
- GP (growth percentage) [34]: −49.77%
- GP (growth percentage) [35]: −98.64%
- GP (growth percentage) [36]: −76.37%
- GP (growth percentage) [37]: −83.74%

Structure (SMILES): COc1cc(NC2=C(Cl)C(=O)c3nc(C)ccc3C2=O)cc(OC)c1 [AQQ5]
- TGI [1]: 3.78 µM
- GI50 [1]: 2.32 µM
- LC50 (concentration killing 50% of starting cells) [1]: 6.15 µM
- TGI [2]: 4.47 µM
- GI50 [2]: 1.81 µM
- CC50 [2]: 21.7 µM
- TGI [3]: 3.22 µM
- GI50 [3]: 1.79 µM
- LC50 [3]: 5.78 µM
- TGI [4]: 3.42 µM
- GI50 [4]: 1.77 µM
- LC50 (concentration killing 50% of cells) [4]: 6.6 µM
- GP (growth percentage) [5]: −50.07%
- GP (growth percentage) [6]: −59.47%
- GP (growth percentage) [7]: −63.27%
- GP (growth percentage) [8]: 71.10%
- GP (growth percentage) [9]: −99.62%
- GP (growth percentage) [10]: −94.65%
- GP (growth percentage) [11]: −92.99%
- GP (growth percentage) [12]: 27.99%
- inhibition at 10 µM [12]: 72%
- TGI [13]: 2.57 µM
- GI50 [13]: 1.23 µM
- LC50 [13]: 5.37 µM
- GP (growth percentage) [14]: 24.11%
- GP (growth percentage) [15]: −28.56%
- GP (growth percentage) [16]: −51.73%
- TGI [17]: 3.55 µM
- GI50 [17]: 1.73 µM
- LC50 [17]: 7.26 µM
- TGI [18]: 8.35 µM
- GI50 [18]: 2.82 µM
- LC50 [18]: 46.1 µM
- TGI [19]: 3.17 µM
- GI50 [19]: 1.73 µM
- LC50 (50% lethal concentration) [19]: 5.83 µM
- TGI [20]: 3.28 µM
- GI50 [20]: 1.76 µM
- LC50 [20]: 6.11 µM
- TGI [21]: 3.57 µM
- GI50 [21]: 1.72 µM
- CC50 [21]: 7.39 µM
- TGI [22]: 3.06 µM
- GI50 [22]: 1.69 µM
- LC50 (lethal concentration 50%) [22]: 5.53 µM
- TGI [23]: 5.19 µM
- GI50 [23]: 1.79 µM
- CC50 [23]: > 100 µM
- TGI [24]: 14.4 µM
- GI50 [24]: 3.25 µM
- LC50 (concentration killing 50% of cells) [24]: 72.7 µM
- TGI [25]: 4.44 µM
- GI50 [25]: 1.92 µM
- LC50 (concentration killing 50% of cells) [25]: 10.8 µM
- TGI [26]: 8.07 µM
- GI50 [26]: 2.68 µM
- CC50 [26]: 82.6 µM
- TGI [27]: 8.97 µM
- GI50 [27]: 2.83 µM
- CC50 [27]: 38.8 µM
- TGI [28]: 2.85 µM
- GI50 [28]: 1.51 µM
- LC50 (NCI-60 lethal concentration, 50% cell kill) [28]: 5.37 µM
- TGI [29]: 3.10 µM
- GI50 [29]: 1.59 µM
- CC50 [29]: 6.03 µM
- TGI [30]: 3.06 µM
- GI50 [30]: 1.56 µM
- LC50 [30]: 6.02 µM
- GP (growth percentage) [31]: −73.06%
- GP (growth percentage) [32]: −92.05%
- GP (growth percentage) [33]: −43.56%
- GP (growth percentage) [34]: 5.03%
- inhibition at 10 µM ([34]; Homo sapiens): 95%
- GP (growth percentage) [35]: −74.93%
- GP (growth percentage) [36]: −82.62%
- GP (growth percentage) [37]: −87.43%
